# Measured values published in ChEMBL document CHEMBL4622844, “Inhibition of bacterial growth and galactosyltransferase activity of WbwC by α, ω-bis(3-alkyl-1H-imidazolium)alkane salts: Effect of varying carbon content” (Bioorg Med Chem, 2020).
# Activity calls are given as the source filed them. The calls are words filed in the database; no cut-off is given here.
# Key:
# Escherichia coli [1] = test: Inhibition of recombinant Escherichia coli O104:H4 Beta-1,3-galactosyltransferase WbwC expressed in Escherichia coli BL21 at 0.5 mM in presence of UDP-[3H]Gal and GalNAC-PO3-PO3-(CH2)11-O-phenyl after 1 hr by scintillation counting method relative to control
# [2] = Inhibition of recombinant Escherichia coli O104:H4 Beta-1,3-galactosyltransferase WbwC expressed in Escherichia coli BL21 in presence of UDP-[3H]Gal and GalNAC-PO3-PO3-(CH2)11-O-phenyl after 1 hr by scintillation counting method
# [3] = molecular target: T1, Beta-1,4-galactosyltransferase 1 (Bos taurus) (UniProt P08037); test: Inhibition of bovine milk Beta-1,4-galactosyltransferase at 0.5 mM in presence of UDP-[3H]Gal and GlcNAc-beta-Bn after 1 hr by scintillation counting method
# T1 sequence (whole entry): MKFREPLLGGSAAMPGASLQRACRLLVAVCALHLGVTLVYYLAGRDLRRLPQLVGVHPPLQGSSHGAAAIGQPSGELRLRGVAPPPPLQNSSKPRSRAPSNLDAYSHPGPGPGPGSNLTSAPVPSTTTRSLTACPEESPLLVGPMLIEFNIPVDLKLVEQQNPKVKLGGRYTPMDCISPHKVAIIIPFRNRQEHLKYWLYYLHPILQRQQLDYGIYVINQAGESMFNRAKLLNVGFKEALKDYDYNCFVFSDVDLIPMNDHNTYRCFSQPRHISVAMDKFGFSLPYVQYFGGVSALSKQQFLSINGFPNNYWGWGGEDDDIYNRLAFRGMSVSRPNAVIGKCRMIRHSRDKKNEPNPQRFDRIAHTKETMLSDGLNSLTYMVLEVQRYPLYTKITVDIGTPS
# A549 = test: Growth inhibition of human A549 cells at 50 uM after 24 hrs by MTT assay; type: cell-based; conditions: a549, 24 h
# AD293 = test: Growth inhibition of human AD293 cells at 50 uM after 24 hrs by MTT assay; type: cell-based; conditions: ad293, 24 h
# OC-3-VGH = test: Growth inhibition of human OC-3-VGH cells at 50 uM after 24 hrs by MTT assay; type: cell-based
# Pseudomonas aeruginosa [4] = test: Antimicrobial activity against Pseudomonas aeruginosa PAO1 assessed as inhibition of colony formation at 50 uM preincubated for 4 hrs and measured after overnight incubation by CFU assay; type: functional
# Bacillus subtilis [5] = test: Antimicrobial activity against Bacillus subtilis assessed as inhibition of colony formation at 10 uM preincubated for 4 hrs and measured after overnight incubation by CFU assay; type: functional
# Escherichia coli [6] = test: Antimicrobial activity against Escherichia coli BL21 assessed as inhibition of colony formation at 10 uM preincubated for 4 hrs and measured after overnight incubation by CFU assay; type: functional
# [7] = test system: Staphylococcus epidermidis; test: Antimicrobial activity against Staphylococcus epidermidis assessed as inhibition of colony formation at 10 uM preincubated for 4 hrs and measured after overnight incubation by CFU assay; type: functional
# Escherichia coli [8] = test: Antimicrobial activity against Escherichia coli BL21 assessed as inhibition of colony formation at 25 uM preincubated for 4 hrs and measured after overnight incubation by CFU assay; type: functional
# Bacillus subtilis [9] = test: Antimicrobial activity against Bacillus subtilis assessed as inhibition of colony formation at 5 uM preincubated for 4 hrs and measured after overnight incubation by CFU assay; type: functional
# Pseudomonas aeruginosa [10] = test: Antimicrobial activity against Pseudomonas aeruginosa PAO1 assessed as inhibition of colony formation at 25 uM preincubated for 4 hrs and measured after overnight incubation by CFU assay; type: functional
# [11] = test system: Staphylococcus epidermidis; test: Antimicrobial activity against Staphylococcus epidermidis assessed as inhibition of colony formation at 25 uM preincubated for 4 hrs and measured after overnight incubation by CFU assay; type: functional
# Bacillus subtilis [12] = test: Antimicrobial activity against Bacillus subtilis assessed as inhibition of colony formation at 25 uM preincubated for 4 hrs and measured after overnight incubation by CFU assay; type: functional
# [13] = test system: Staphylococcus epidermidis; test: Antimicrobial activity against Staphylococcus epidermidis assessed as inhibition of colony formation at 5 uM preincubated for 4 hrs and measured after overnight incubation by CFU assay; type: functional
# Pseudomonas aeruginosa [14] = test: Antimicrobial activity against Pseudomonas aeruginosa PAO1 assessed as inhibition of colony formation at 5 uM preincubated for 4 hrs and measured after overnight incubation by CFU assay; type: functional
# Escherichia coli [15] = test: Antimicrobial activity against Escherichia coli BL21 assessed as inhibition of colony formation at 5 uM preincubated for 4 hrs and measured after overnight incubation by CFU assay; type: functional
# Pseudomonas aeruginosa [16] = test: Antimicrobial activity against Pseudomonas aeruginosa PAO1 assessed as inhibition of colony formation at 10 uM preincubated for 4 hrs and measured after overnight incubation by CFU assay; type: functional
smiles,measurement,setting,value
C[n+]1ccn(CCCCCCCCCCCCCCCn2cc[n+](C)c2)c1,inhibition,Escherichia coli [1],11%
CCCCCCCCCC[n+]1ccn(CCCCCCn2cc[n+](CCCCCCCCCC)c2)c1,IC50,[2],263 µM
same,inhibition,[3],Active
same,inhibition,Escherichia coli [1],92%
C[n+]1ccn(CCCCCCCCn2cc[n+](C)c2)c1,inhibition,Escherichia coli [1],21%
c1cn(CCCCCCCCCCCCCCCCCCn2ccnc2)cn1,growth inhibition (GI),A549,Non-Toxic
same,growth inhibition (GI),AD293,Non-Toxic
same,growth inhibition (GI),OC-3-VGH,Non-Toxic
CCCCCCCCC[n+]1ccn(CCCCCCCCCCCCCCCCn2cc[n+](CCCCCCCCC)c2)c1,IC50,[2],35 µM
same,inhibition,Escherichia coli [1],93%
CCCCCCC[n+]1ccn(CCCCCCn2cc[n+](CCCCCCC)c2)c1,inhibition,Escherichia coli [1],16%
CCCCCCCCCCCC[n+]1ccn(CCCCCCn2cc[n+](CCCCCCCCCCCC)c2)c1,IC50,[2],43 µM
same,inhibition,[3],Active
same,inhibition,Escherichia coli [1],90%
CCCCCC[n+]1ccn(CCCCCCCCCCCCCCCCn2cc[n+](CCCCCC)c2)c1,IC50,[2],48 µM
same,inhibition,[3],Active
same,inhibition,Escherichia coli [1],88%
CCCCCCCC[n+]1ccn(CCCCCCn2cc[n+](CCCCCCCC)c2)c1,inhibition,Escherichia coli [1],13%
CCCCCCCCCCC[n+]1ccn(CCCCCCn2cc[n+](CCCCCCCCCCC)c2)c1,IC50,[2],117 µM
same,inhibition,Escherichia coli [1],99%
C[n+]1ccn(CCCCCCCCCCCCCCCCn2cc[n+](C)c2)c1,inhibition,Escherichia coli [1],< 1%
C[n+]1ccn(CCCCn2cc[n+](C)c2)c1,inhibition,Escherichia coli [1],9%
same,inhibition at 50 µM,Pseudomonas aeruginosa [4],0%
CCCCCCCCCC[n+]1ccn(CCCCCCCCCCCCCCCCn2cc[n+](CCCCCCCCCC)c2)c1,IC50,[2],147 µM
same,inhibition,Escherichia coli [1],92%
C[n+]1ccn(CCCCCCn2cc[n+](C)c2)c1,inhibition,Escherichia coli [1],7%
same,inhibition at 50 µM,Pseudomonas aeruginosa [4],0%
CCCCCC[n+]1ccn(CCCCCCCCCCn2cc[n+](CCCCCC)c2)c1,inhibition,Escherichia coli [1],< 1%
CCCCCCCC[n+]1ccn(CCCCCCCCCCn2cc[n+](CCCCCCCC)c2)c1,inhibition at 10 µM,Bacillus subtilis [5],100%
same,inhibition at 10 µM,Escherichia coli [6],100%
same,IC50,[2],123 µM
same,inhibition at 10 µM,[7],100%
same,inhibition at 25 µM,Escherichia coli [8],100%
same,inhibition at 5 µM,Bacillus subtilis [9],100%
same,inhibition at 25 µM,Pseudomonas aeruginosa [10],100%
same,inhibition at 25 µM,[11],100%
same,inhibition at 25 µM,Bacillus subtilis [12],100%
same,inhibition at 5 µM,[13],100%
same,inhibition,Escherichia coli [1],64%
same,inhibition at 5 µM,Pseudomonas aeruginosa [14],96%
same,inhibition at 5 µM,Escherichia coli [15],100%
same,inhibition at 10 µM,Pseudomonas aeruginosa [16],100%
C[n+]1ccn(CCCCCCCCCCCCCCn2cc[n+](C)c2)c1,inhibition at 10 µM,Bacillus subtilis [5],20%
same,inhibition at 10 µM,Escherichia coli [6],32%
same,inhibition at 10 µM,[7],0%
same,inhibition at 25 µM,Escherichia coli [8],51%
same,inhibition at 5 µM,Bacillus subtilis [9],8%
same,inhibition at 25 µM,Pseudomonas aeruginosa [10],22%
same,inhibition at 25 µM,[11],0%
same,inhibition at 25 µM,Bacillus subtilis [12],51%
same,inhibition at 5 µM,[13],0%
same,inhibition,Escherichia coli [1],10%
same,inhibition at 5 µM,Pseudomonas aeruginosa [14],0%
same,inhibition at 5 µM,Escherichia coli [15],0%
same,inhibition at 10 µM,Pseudomonas aeruginosa [16],4%
